{"source": "ChEMBL document CHEMBL5465560", "about": "“Selectivity Literature for EUbOPEN Chemogenomic Library” (2024)", "key": {"[1]": {"target": "Serine/threonine-protein kinase 16 (Homo sapiens, UniProt O75716)", "sequence (O75716 whole entry)": "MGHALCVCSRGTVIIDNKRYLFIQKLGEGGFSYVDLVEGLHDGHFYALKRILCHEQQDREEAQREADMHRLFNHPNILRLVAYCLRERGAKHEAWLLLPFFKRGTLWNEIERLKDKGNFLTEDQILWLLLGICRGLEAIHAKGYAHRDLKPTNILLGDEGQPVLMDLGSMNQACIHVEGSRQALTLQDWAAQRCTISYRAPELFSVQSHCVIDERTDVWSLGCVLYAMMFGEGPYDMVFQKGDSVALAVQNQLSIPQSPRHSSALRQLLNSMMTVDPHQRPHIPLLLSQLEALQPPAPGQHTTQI", "assay": "Selectivity interaction (Ambit KINOMEscan and KiNATiv profiling in Jurkat cells) EUB0000090b STK16", "format": "cell-based", "conditions": "at 1 µM"}, "[2]": {"target": "T1, Serine/threonine-protein kinase ULK1 (Homo sapiens) (UniProt O75385)", "T1 sequence (whole entry)": "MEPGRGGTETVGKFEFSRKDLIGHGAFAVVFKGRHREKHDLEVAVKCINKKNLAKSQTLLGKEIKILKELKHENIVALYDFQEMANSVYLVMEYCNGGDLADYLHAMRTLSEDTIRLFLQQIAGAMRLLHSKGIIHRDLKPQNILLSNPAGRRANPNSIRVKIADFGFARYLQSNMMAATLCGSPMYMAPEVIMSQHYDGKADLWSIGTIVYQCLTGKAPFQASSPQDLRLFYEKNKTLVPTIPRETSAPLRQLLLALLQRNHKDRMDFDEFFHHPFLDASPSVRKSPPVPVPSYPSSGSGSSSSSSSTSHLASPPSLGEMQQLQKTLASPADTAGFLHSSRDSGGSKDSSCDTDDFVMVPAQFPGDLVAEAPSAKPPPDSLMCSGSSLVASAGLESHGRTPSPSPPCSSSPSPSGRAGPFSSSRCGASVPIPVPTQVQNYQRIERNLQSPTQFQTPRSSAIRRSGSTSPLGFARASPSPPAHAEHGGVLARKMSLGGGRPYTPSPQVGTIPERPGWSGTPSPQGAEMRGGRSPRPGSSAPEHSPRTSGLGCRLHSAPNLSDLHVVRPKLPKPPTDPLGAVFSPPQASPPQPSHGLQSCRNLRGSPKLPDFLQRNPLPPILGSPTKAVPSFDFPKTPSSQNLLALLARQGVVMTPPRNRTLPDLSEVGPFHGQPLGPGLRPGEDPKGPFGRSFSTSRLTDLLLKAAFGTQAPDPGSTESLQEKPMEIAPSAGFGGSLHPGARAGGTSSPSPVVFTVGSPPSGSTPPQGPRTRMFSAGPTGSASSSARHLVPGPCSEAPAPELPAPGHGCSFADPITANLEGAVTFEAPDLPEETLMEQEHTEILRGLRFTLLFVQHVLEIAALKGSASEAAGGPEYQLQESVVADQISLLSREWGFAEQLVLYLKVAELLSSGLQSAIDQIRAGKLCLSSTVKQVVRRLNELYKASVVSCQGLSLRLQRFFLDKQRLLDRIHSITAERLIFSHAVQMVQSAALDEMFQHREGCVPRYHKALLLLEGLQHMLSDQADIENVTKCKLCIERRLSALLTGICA", "assay": "Selectivity interaction (KinomeScan (DiscoverX)) EUB0000655a ULK1", "conditions": "at 10 µM"}, "[3]": {"target": "Cyclin-dependent kinase 15 (Homo sapiens) (UniProt Q96Q40)", "sequence (Q96Q40 whole entry)": "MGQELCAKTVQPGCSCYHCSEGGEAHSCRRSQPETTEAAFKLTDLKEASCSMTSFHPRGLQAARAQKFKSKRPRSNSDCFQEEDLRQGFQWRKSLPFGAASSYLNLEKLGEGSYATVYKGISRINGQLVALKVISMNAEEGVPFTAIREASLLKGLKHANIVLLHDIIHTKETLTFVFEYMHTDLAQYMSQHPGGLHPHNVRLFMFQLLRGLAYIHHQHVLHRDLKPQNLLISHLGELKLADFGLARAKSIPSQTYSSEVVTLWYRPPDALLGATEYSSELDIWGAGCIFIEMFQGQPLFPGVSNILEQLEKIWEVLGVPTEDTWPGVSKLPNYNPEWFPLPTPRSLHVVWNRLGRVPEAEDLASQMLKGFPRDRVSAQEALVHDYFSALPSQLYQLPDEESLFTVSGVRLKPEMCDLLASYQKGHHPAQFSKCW", "assay": "Selectivity interaction (KinomeScan (DiscoverX)) EUB0000618a CDK15", "conditions": "at 10 µM"}, "[4]": {"target": "T2, Serine/threonine-protein kinase TAO3 (Homo sapiens) (UniProt Q9H2K8)", "T2 sequence (whole entry)": "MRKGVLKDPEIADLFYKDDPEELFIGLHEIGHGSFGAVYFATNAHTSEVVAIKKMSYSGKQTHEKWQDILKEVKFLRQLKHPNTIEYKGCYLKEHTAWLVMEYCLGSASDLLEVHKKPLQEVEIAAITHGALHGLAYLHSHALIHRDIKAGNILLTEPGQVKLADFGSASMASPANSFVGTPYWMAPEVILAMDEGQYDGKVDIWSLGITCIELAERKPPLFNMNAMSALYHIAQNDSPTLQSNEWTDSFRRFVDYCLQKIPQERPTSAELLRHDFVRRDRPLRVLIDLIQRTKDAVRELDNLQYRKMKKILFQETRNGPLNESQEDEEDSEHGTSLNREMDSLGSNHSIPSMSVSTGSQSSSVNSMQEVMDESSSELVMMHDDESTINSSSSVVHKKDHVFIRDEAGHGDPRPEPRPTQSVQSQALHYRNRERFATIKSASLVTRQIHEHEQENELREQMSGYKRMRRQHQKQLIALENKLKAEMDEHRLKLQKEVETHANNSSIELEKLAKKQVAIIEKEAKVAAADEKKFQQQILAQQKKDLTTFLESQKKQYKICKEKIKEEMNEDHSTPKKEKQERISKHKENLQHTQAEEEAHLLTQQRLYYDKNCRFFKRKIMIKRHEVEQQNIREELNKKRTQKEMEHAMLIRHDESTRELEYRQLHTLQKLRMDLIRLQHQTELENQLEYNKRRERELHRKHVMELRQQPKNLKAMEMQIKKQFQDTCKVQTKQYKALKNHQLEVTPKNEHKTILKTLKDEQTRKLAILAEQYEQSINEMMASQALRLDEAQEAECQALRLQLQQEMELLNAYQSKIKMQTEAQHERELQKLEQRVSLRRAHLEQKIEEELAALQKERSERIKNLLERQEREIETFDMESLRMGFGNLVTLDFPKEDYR", "assay": "Selectivity interaction (KinomeScan (DiscoverX)) EUB0000595a TAOK3", "conditions": "at 10 µM"}, "[5]": {"target": "Rho-associated protein kinase 1 (Homo sapiens) (UniProt Q13464)", "sequence (Q13464 2-1354 limits assumed)": "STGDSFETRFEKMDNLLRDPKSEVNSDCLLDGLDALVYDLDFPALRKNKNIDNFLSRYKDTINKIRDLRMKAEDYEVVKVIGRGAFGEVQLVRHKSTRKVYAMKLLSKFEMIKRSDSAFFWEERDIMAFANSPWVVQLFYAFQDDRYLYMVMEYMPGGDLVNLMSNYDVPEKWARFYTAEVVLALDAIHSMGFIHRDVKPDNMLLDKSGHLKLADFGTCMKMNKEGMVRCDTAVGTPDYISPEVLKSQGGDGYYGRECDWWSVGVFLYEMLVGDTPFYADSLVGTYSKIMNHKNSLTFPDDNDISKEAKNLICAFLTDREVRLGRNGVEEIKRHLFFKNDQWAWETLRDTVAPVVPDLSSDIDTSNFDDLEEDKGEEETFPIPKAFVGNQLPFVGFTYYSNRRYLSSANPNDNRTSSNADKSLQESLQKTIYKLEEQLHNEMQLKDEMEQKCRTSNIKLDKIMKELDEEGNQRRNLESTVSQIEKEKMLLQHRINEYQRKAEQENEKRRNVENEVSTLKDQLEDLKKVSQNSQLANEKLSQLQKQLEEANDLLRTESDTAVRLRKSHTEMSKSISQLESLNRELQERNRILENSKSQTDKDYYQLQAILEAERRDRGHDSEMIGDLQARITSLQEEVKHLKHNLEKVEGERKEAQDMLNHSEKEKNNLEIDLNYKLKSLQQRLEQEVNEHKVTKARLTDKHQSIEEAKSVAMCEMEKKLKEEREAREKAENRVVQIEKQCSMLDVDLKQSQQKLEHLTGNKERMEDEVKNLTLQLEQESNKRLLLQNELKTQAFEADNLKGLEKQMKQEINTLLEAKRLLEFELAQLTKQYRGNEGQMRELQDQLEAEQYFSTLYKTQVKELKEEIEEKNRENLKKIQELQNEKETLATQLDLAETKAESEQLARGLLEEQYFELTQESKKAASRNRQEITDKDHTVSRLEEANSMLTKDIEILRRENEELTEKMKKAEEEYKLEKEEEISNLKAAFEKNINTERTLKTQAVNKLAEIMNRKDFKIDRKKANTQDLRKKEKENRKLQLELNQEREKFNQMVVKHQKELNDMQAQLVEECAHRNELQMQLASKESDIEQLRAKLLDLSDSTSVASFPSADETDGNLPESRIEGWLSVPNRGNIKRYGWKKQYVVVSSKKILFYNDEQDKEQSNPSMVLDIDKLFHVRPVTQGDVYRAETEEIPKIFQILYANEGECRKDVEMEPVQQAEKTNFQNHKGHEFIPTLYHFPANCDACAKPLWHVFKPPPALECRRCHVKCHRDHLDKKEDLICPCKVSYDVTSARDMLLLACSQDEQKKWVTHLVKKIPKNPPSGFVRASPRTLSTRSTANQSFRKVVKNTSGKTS", "assay": "Selectivity interaction (KinomeScan (DiscoverX)) EUB0000092b ROCK1", "conditions": "at 10 µM"}}}
{"compound": "CN(C)C/C=C/C(=O)Nc1ccc(C(=O)N2CCCC(Nc3ncc(Cl)c(-c4c[nH]c5ccccc45)n3)C2)cc1", "note": "(stereo not given)", "values": [{"measurement": "% of control", "setting": "[1]", "value": 6.2, "unit": "%"}]}
{"compound": "CN(C)CCOc1ccc(-c2nc(-c3ccncc3)c(-c3ccc4c(c3)CC/C4=N\\O)[nH]2)cc1", "values": [{"measurement": "% of control", "setting": "[2]", "value": 98, "unit": "%"}]}
{"compound": "O[C@H]1CC[C@H](Nc2ncc3nc(Nc4c(F)cc(F)cc4F)n([C@H]4CCOC4)c3n2)CC1", "values": [{"measurement": "% of control", "setting": "[3]", "value": 100, "unit": "%"}]}
{"compound": "COCC(=O)NC/C=C/c1ccc2ncnc(Nc3ccc(Oc4ccc(C)nc4)c(C)c3)c2c1", "note": "[CP-724714]", "values": [{"measurement": "% of control", "setting": "[4]", "value": 100, "unit": "%"}]}
{"compound": "CCC(=O)N1CCN(c2ccc(-n3c(=O)ccc4cnc5ccc(-c6cnc7ccccc7c6)cc5c43)cc2C(F)(F)F)CC1", "values": [{"measurement": "% of control", "setting": "[5]", "value": 53, "unit": "%"}]}
